One assay deals with T1, PqsR (Pseudomonas aeruginosa, UniProt Q9I4X0).
T1 construct: which expresses PqsR and the β-galactosidase LacZ under the control of the pqsA promoter; expressed in transfected cells; host or cells: E. coli DH5α carrying plasmid pEAL08-2
As to the kind of experiment: PqsR β-galactosidase reporter-gene assay in E. coli DH5α. Format: cell-based. The procedure: 3. Primary Activity Assays
The inverse agonistic/antagonistic activity of potential PqsR ligands was evaluated in a β-galactosidase reporter gene assay in E. coli as previously described.[3] In short, test compounds were co-incubated with E. coli DH5α cells containing the plasmid pEAL08-2,[4] which expresses PqsR and the β-galactosidase LacZ under the control of the pqsA promoter.
The inverse agonistic/antagonistic activity of compounds was measured in the presence of 50 nM PQS. After incubation, galactosidase activity was quantified photometrically and expressed as ratio of controls. The given IC50 values represent the mean of at least two independent experiments using at least eight different concentrations of test compound with n = 4. Non-linear regression analysis was performed using OriginPro 2020. […]

The subject of assay [1] is Ca2+ channel (L, dihydropyridine site). As to the kind of experiment: CEREP off-target panel, antagonist radioligand. Format: binding. To be noted: @10µM. The procedure: (§1) 5. In vitro ADME/T and Safety Pharmacology
(§2) 5.1. CEREP off-targets assay
(§3) Experiments towards possible off-target effects were conducted following Eurofins Discovery protocol. Detailed information about the assays can be found in: https://www.eurofinsdiscoveryservices.com/catalogmanagement/viewitem/SafetyScreen44- […]
(§4) Table S3. Possible CEREP off-targets. entry off-target QSI 4 QSI 17 Assay
(§5) (%binding (%binding method
(§6) (1 picture or pasted object on this page, not shown here)

A further assay addresses T2, α1A receptor (Homo sapiens, UniProt P35348).
T2 construct: Eurofins Discovery (SafetyScreen44 Panel, Cerep) P270
As to the kind of experiment: CEREP off-target panel, antagonist radioligand. Format: binding. To be noted: @10µM. The method, then:
as §1, §2, §3, §4, §5, §6

The subject of the next assay is Na+ channel (site 2). As to the kind of experiment: CEREP off-target panel, antagonist radioligand. Format: binding. Particulars: @10µM. The method, then: as §1, §2, §3, §4, §5, §6
A further assay addresses T3, Dopamine transporter (Homo sapiens, UniProt Q01959).
T3 construct: Eurofins Discovery (SafetyScreen44 Panel, Cerep) P270
Nature of the assay: CEREP off-target panel, antagonist radioligand. Format: binding. Particulars: @10µM. The method, then:
as §1, §2, §3, §4, §5, §6

Assay [2] addresses T4, Norepinephrine transporter (Homo sapiens, UniProt P23975).
T4 construct: Eurofins Discovery (SafetyScreen44 Panel, Cerep) P270
As to the kind of experiment: CEREP off-target panel, antagonist radioligand. Format: binding. Particulars: @10µM. The procedure: as §1, §2, §3, §4, §5, §6

Another assay relates to PA14 wt biofilm. As to the kind of experiment: Minimum biofilm eradicating concentration (MBEC) assay. Format: cell-based, Pseudomonas aeruginosa. The text has this: page 21: wild type (PA14 wt) was purchased from DSMZ, the German Collection of Microorganism and Cell Cultures GmbH (PA14 = DSMZ19882) and cultured in minimal proteose peptone glucose ammonium salt (PPGAS) medium. […] KCl, 19 g/L Tris-HCl, 10 g/L peptone, 5 g/L glucose and 0.1 g/L MgSO4∙7H2O. The pH value […] Agar solution was […] resulting solution was sterilized before being plated. The minimum inhibitory concentration (IC) of drug-free SqNPs, compound 4 prepared either in dimethyl sulfoxide (DMSO) or loaded in SqNPs, free Tob, Tob-loaded SqNPs, and Tob and compound 4 co-loaded SqNPs against planktonic PA14 wt were determined by standard microbroth dilution assays in 96-well plates. PA14 wt suspension was prepared from mid-log cultures in PPGAS medium and […] PBS served as a control. […] The MBECs of free Tob, Tob-loaded SqNPs, free Tob plus free compound 4 prepared in DMSO, and Tob and compound (4) co-loaded SqNPs were determined by the MBEC assay as reported in previous study.[2,7] […] The biofilm-eradicating efficacy was assessed according to viable bacterial load determined using dilution in PBS/0.05% Tween20 and plating on agar S20 page 22: plates to count CFU after overnight incubation at […]. […] Using GraphPad Prism 8.4.2, the AUC was calculated for each condition. […] After a 24h treatment, efficacy was assessed by determination of colony-forming units per millilitre (CFU/mL). […]

T1 sequence (Q9I4X0 whole entry): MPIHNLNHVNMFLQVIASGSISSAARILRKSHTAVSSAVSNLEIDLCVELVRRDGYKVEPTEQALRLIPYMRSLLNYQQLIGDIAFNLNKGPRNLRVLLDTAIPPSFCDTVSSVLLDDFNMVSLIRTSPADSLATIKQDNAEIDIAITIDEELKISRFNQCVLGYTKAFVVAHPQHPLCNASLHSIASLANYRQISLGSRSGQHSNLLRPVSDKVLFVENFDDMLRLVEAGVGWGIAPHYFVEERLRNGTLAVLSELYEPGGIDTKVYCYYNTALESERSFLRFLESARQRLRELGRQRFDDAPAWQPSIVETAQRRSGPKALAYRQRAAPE
T3 sequence (Q01959 whole entry): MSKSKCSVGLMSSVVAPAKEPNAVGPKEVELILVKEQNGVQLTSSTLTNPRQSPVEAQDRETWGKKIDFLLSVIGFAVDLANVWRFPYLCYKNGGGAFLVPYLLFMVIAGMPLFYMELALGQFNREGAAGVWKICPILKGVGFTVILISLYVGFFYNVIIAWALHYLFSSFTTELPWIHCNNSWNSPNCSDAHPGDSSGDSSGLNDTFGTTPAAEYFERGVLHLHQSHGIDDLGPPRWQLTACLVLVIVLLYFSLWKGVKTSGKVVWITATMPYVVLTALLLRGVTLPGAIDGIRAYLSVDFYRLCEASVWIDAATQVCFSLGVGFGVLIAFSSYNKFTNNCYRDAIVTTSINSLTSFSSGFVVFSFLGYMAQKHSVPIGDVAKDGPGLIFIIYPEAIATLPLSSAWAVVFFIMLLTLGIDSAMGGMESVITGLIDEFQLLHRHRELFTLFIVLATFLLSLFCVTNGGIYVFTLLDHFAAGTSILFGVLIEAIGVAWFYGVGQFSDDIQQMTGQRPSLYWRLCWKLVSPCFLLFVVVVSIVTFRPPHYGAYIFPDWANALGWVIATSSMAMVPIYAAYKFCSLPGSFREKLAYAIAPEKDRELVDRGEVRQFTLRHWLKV
T2 sequence (P35348 whole entry): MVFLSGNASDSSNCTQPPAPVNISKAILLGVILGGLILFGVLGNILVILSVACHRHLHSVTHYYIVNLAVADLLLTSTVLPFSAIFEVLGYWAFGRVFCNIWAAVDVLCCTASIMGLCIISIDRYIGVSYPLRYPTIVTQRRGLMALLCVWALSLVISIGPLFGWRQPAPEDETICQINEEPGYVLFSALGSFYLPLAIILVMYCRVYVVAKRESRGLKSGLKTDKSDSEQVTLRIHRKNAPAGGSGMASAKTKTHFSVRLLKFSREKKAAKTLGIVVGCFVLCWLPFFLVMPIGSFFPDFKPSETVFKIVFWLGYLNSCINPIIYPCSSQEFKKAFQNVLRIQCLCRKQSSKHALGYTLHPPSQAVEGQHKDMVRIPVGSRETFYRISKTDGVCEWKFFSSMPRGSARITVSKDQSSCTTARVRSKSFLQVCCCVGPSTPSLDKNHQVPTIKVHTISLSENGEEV
T4 sequence (P23975 whole entry): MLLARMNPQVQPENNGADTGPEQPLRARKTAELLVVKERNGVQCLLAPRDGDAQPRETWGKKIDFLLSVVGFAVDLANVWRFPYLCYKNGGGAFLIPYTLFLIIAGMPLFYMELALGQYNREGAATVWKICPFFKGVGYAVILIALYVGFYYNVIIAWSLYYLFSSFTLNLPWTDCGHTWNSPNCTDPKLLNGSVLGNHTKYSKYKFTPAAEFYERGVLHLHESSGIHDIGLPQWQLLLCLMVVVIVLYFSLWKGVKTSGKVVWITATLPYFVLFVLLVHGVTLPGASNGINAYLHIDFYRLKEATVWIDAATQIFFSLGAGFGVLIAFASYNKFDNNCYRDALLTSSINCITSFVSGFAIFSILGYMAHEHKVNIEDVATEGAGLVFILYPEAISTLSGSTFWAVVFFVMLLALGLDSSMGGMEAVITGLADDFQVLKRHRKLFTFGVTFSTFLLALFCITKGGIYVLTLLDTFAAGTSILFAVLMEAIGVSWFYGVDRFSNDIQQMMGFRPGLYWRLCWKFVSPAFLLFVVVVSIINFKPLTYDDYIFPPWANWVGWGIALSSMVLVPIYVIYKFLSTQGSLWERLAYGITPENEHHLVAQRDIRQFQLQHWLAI

On PqsR, `COc1ccc(-n2cc(CNc3ccnc(C(F)(F)F)c3)nn2)cc1Cl` [Compound 17] showed an IC50 of 8 nM. Moreover, at PqsR (PqsR reporter-gene IC50, versus 11), the “fold higher activity than monosubstituted 11” value was found to be 10 fold. For the same molecule, the “% binding, Ca2+ channel (L, dihydropyridine site)” value in assay [1] was determined as 30.36%. Moreover, the “% binding, α1A receptor” value at α1A receptor was 55.42%. Moreover, in the assay on Na+ channel (site 2), the “% binding, Na+ channel (site 2)” value was -27.90%. Besides, the “% binding, Dopamine transporter” value at Dopamine transporter is on record as 28.91%. The “% binding, Norepinephrine transporter” value in assay [2] was determined as 8.58%.
Turning to `NC[C@H]1O[C@H](O[C@H]2[C@H](O)[C@@H](O[C@H]3O[C@H](CO)[C@@H](O)[C@H](N)[C@H]3O)[C@H](N)C[C@@H]2N)[C@H](N)C[C@@H]1O` [Tobramycin, tobramycin], the “MBEC (Tob concentration for complete biofilm eradication)” value in the assay with PA14 wt biofilm (PA14 wt biofilm, 24 h treatment, 4 constant at 20 × 10^−6 M where used) is given as “higher than 200 µg mL^−1”.
Regarding `FC(F)(F)c1cc(NCc2cn(-c3ccc(Oc4ccccc4)cc3)nn2)ccn1` [Compound 4], the IC50 against PqsR was determined as 11 nM. In addition, the “PA14 wt biofilm inhibitory effect” value in the assay on PA14 wt biofilm (controls of the MBEC assay, compound 4 at 20 μM) was “did not show any PA14 wt biofilm inhibitory effects”. Also, the “% binding, Ca2+ channel (L, dihydropyridine site)” value in assay [1] came out at 78.29%. In addition, the “% binding, α1A receptor” value on α1A receptor worked out at 40.59%. Further, the “% binding, Na+ channel (site 2)” value in the assay with Na+ channel (site 2) was 54.62%. Further, the “% binding, Dopamine transporter” value at Dopamine transporter is 97.25%. The “% binding, Norepinephrine transporter” value in assay [2] came to 82.52%.

Broadly, the IC50 is the concentration that inhibits the measured activity by half. Read a high IC50 as weaker potency in that assay.

Values taken from publication PMC8224453, “A New PqsR Inverse Agonist Potentiates Tobramycin Efficacy to Eradicate Pseudomonas aeruginosa Biofilms” (Advanced Science, 2021).
